Data as given in patent US11147272B2, “Pyridone compounds and agricultural and horticultural fungicides comprising the same as active ingredients” (MITSUI CHEMICALS AGRO, INC., priority 2017, dated 2021).

Assays:
Magnaporthe grisea = assay: whole plant or invertebrate; type: in vivo; conditions: Blast on rice; control value class
Alternaia brassicicola = assay: Test Example C: Alternaria sooty spot on cabbage; type: in vivo; conditions: Alternaria sooty spot on cabbage; control value class
From the text: Seeds of a test plant (cabbage variety: Shikidori) were planted and cultivated until the cotyledons extended.
<Control Value> Control value=100{1−(n/3)}

Puccinia recondita = assay: Test Example E: Brown rust on wheat; type: in vivo; conditions: Brown rust on wheat; control value class
Phytophthora infestans = assay: whole plant or invertebrate; type: in vivo; conditions: Late blight on tomato; control value class
Botrytis cinerea = assay: Test Example B: Gray mold on tomato; conditions: Gray mold on tomato; control value class
Plasmopara viticola = assay: Test Example G: Downy mildew on vine; conditions: Downy mildew on vine; 250 ppm spray, 7 to 10 days after inoculation
[1] = system: Colletotrichum orbiculare; assay: Test Example H: Anthracnose on cucumber; conditions: Anthracnose on cucumber; 250 ppm spray, 6 to 10 days after inoculation
[2] = system: Blumeria graminis f. sp. hordei; assay: Test Example D: Powdery mildew on barley; conditions: Powdery mildew on barley; control value class

Structure (SMILES) | Test A control value (Magnaporthe grisea) | Test C control value (Alternaia brassicicola) | Test E control value (Puccinia recondita) | Test F control value (Phytophthora infestans) | Test B control value (Botrytis cinerea) | Test G control value (Plasmopara viticola) | Test H control value [1] | Test D control value [2]
CCn1c(-c2c(F)cc(F)cc2F)c(C(O)C2CC2)cc(Cl)c1=O (centres unmarked) [compound 258] | H (more than 50% control value) | H (more than 50% control value) | H (more than 50% control value) | L (50% or less control value) | H (more than 50% control value) | H (more than 50% control value) | H (more than 50% control value) | H (more than 50% control value)
CCn1c(-c2c(F)cc(F)cc2F)c(C(OC(C)=O)C2CC2)cc(Cl)c1=O (centres unmarked) [compound 259] | H (more than 50% control value) | H (more than 50% control value) | H (more than 50% control value) | L (50% or less control value) | H (more than 50% control value) | H (more than 50% control value) | H (more than 50% control value) | H (more than 50% control value)
CCn1c(-c2c(F)cc(F)cc2F)c(C(=O)C2CC2)cc(Cl)c1=O [compound 260] | H (more than 50% control value) | H (more than 50% control value) | H (more than 50% control value) | H (more than 50% control value) | H (more than 50% control value) | L (50% or less control value) | H (more than 50% control value) | H (more than 50% control value)
CCn1c(-c2c(F)cc(F)cc2F)c(C(C)(O)C2CC2)cc(Cl)c1=O (centres unmarked) [compound 261] | H (more than 50% control value) | H (more than 50% control value) | H (more than 50% control value) | L (50% or less control value) | H (more than 50% control value) | H (more than 50% control value) | H (more than 50% control value) | H (more than 50% control value)
CCn1c(-c2ccccc2Cl)c(CC(C)C)ccc1=O [compound 262] | L (50% or less control value) | H (more than 50% control value) | H (more than 50% control value) | L (50% or less control value) | H (more than 50% control value) | L (50% or less control value) | H (more than 50% control value) | H (more than 50% control value)
CCc1cc(F)ccc1-c1c(CC(C)C)cc(Cl)c(=O)n1CC [compound 263] | H (more than 50% control value) | H (more than 50% control value) | H (more than 50% control value) | L (50% or less control value) | H (more than 50% control value) | H (more than 50% control value) | H (more than 50% control value) | H (more than 50% control value)
CCn1c(-c2ccccc2Cl)c(CC(C)C)cc(Br)c1=O [compound 264] | L (50% or less control value) | H (more than 50% control value) | H (more than 50% control value) | L (50% or less control value) | H (more than 50% control value) | L (50% or less control value) | H (more than 50% control value) | H (more than 50% control value)
CCn1c(-c2ccccc2Cl)c(CC(C)C)cc(Cl)c1=O [compound 265] | H (more than 50% control value) | H (more than 50% control value) | H (more than 50% control value) | L (50% or less control value) | H (more than 50% control value) | H (more than 50% control value) | H (more than 50% control value) | H (more than 50% control value)
CCCCCCCc1ccc(=O)n(CC)c1-c1ccc(F)cc1Cl [compound 266] | L (50% or less control value) | L (50% or less control value) | H (more than 50% control value) | L (50% or less control value) | L (50% or less control value) | L (50% or less control value) | H (more than 50% control value) | H (more than 50% control value)
CCCCCCCCCC1=C(c2ccc(F)cc2Cl)N(CC)C(=O)CC1 [compound 267] | L (50% or less control value) | L (50% or less control value) | L (50% or less control value) | L (50% or less control value) | L (50% or less control value) | L (50% or less control value) | H (more than 50% control value) | H (more than 50% control value)
CCCCCCCc1cc(Cl)c(=O)n(CC)c1-c1ccc(F)cc1Cl [compound 268] | L (50% or less control value) | L (50% or less control value) | L (50% or less control value) | L (50% or less control value) | L (50% or less control value) | L (50% or less control value) | L (50% or less control value) | H (more than 50% control value)
CCCCCCCc1cc(Br)c(=O)n(CC)c1-c1ccc(F)cc1Cl [compound 269] | L (50% or less control value) | L (50% or less control value) | L (50% or less control value) | L (50% or less control value) | L (50% or less control value) | L (50% or less control value) | L (50% or less control value) | H (more than 50% control value)
CCCCCCCCc1ccc(=O)n(CC)c1-c1ccc(F)cc1Cl [compound 270] | L (50% or less control value) | L (50% or less control value) | L (50% or less control value) | L (50% or less control value) | L (50% or less control value) | L (50% or less control value) | L (50% or less control value) | H (more than 50% control value)
